Assay results taken from patent US7368582B2, “Amidomethyl-substituted 2-(4-sulfonylamino)-3-hydroxy-3,4-dihydro-2H-chromen-6-yl compounds, a process and intermediates for their production, and pharmaceutical compositions containing them” (Solvay Pharmaceuticals GmbH, priority 2003, dated 2008).

Legend:
Kv 1.5-potassium channel = target: T1, Kv 1.5-potassium channel (Homo sapiens, UniProt P22460); assay: In-vitro Kv 1.5-potassium channel-blocking effect (Rb+ outflow from CHO cells, atomic absorption spectroscopy); format: cell-based; details: CHO cells stably expressing Kv 1.5, read-out: IC50 (Kv1.5-potassium channel-blocking effect, concentration of half-maximum inhibition)
T1 construct: expressed in transfected cells
Description: 1. In-Vitro Investigation of the Kv 1.5-Potassium Channel-Blocking Effect of the Substances
In this test model, a cell line of egg cells of the Chinese hamster (=“Chinese hamster oocytes”, “CHO”) is used which originates from a single cell and stably expresses the Kv 1.5-channel. By incubation overnight in a nutrient medium containing RbCl or a “loading buffer” (all values in mM: RbCl 5, NaCl 140, CaCl2 2, MgSO4 1, HEPES buffer 10, glucose 5) the aforementioned oocytes are loaded with Rb^+ under the influence of Na^+/K^+-ATPase. Thereafter, a portion of the oocytes is incubated as a reference standard in the absence of an inhibitor, while another portion of the oocytes is incubated in the presence of the respective inhibitory test substance of Formula I. Then the oocytes are depolarized by increasing the extracellular potassium-ion concentration, which causes the Kv 1.5-potassium channels of the oocytes to open. In the absence of an inhibitor, the Rb^+ ions flow through the Kv 1.5-potassium channels into the liquid surrounding them. In the presence of an inhibitory test substance of Formula I, on the other hand, the Rb^+ ions remain locked within the oocytes. The extent of the Kv 1.5-potassium channel-blocking effect of the test substances of Formula I is determined by measuring the Rb^+ ion concentration in the liquid surrounding them by means of atomic absorption spectroscopy against a reference standard.
Chinese hamster oocytes (see above) were cultivated in a known, RbCl-containing nutrient medium for CHO-cells and placed in the sample wells of a 96-sample capacity sample plate (“96 well plate”). The oocytes were allowed to grow overnight in order to obtain monolayers of the oocytes. Then the nutrient medium was pipetted off, and each sample well was washed three times with 100 μl portions of a preincubation buffer of low potassium-ion concentration (all values in mM: KCl 5, NaCl 140, CaCl2 2, MgSO4 1, HEPES buffer 10, glucose 5). Then 50 μl of a solution of the respective test substance (stock solution in DMSO, dilution with preincubation buffer, final concentration in the test batch 10 μM) or of the solvent (as negative controls) was added to each sample well and incubated for 10 min. in each case at room temperature. Then 50 μl of a stimulation buffer with elevated potassium-ion concentration (KCl 145 mM, NaCl 0 mM, otherwise as preincubation buffer) was added to each sample well and the samples were then incubated for a further 10 min. at room temperature. In each case, 80 μl of the liquid surrounding the oocytes from each sample well was then transferred separately to the sample wells of an analysis sample plate, and the Rb^+ ion concentration in the liquids was determined by atomic absorption spectroscopy. The test substances were each double-tested. The signal section which represented the Kv 1.5 component of the Rb^+ outflow was defined by using as positive control the known potassium channel blocker 4-AP in a high concentration (100×IC50 for the Kv 1.5 channel). This made it possible to determine which portion of the Rb^+ outflow was dependent on the influence of the 4-AP and therefore is to be assigned to the Kv 1.5 channel. For the substances which in the concentration of 10 μM used led to a reduction in the Rb^+ outflow of at least 50%, additional tests were performed with lower concentrations of the test substances in order to be able to determine the half-maximum effective concentration. In each case the concentration of half-maximum inhibition of the test substances of Formula I (IC50) was given as characteristic variable.

ventricle of guinea pigs = assay: Functional effectiveness on guinea-pig hearts in vivo (ERP, QT, QRS, systolic blood pressure); set-up: species or system guinea pig (Dunkin-Hartley); details: 1 min. after 10 μmole/kg i.v.; for QRS / QT / syst. blood pressure (change): guinea pigs; for syst. blood pressure (change): minus effects due to the vehicle, negative values indicate reduction; for ERP: ventricle of guinea pigs, negative values indicate shortening
Source text: 4. Investigation of the Functional Effectiveness of the Substances on Guinea-Pig Hearts in Vivo
In the test model shown below, it was shown that the substances according to the invention at most have slight undesirable proarrhythmic effects on repolarization in the ventricle. To this end, the influence of the compounds of Formula I on the effective refractory period (ERP) and other influencing variables on guinea-pig hearts in vivo were investigated. In this test model, non-selective potassium channel blockers not in accordance with the invention, which also block HERG and/or KvLQT1 channels, result in undesirable prolongation of the ERP and the QT time on an electrocardiogram (═ECG). The QT time is likewise a measurement of the repolarization in the heart. Prolongations of both the ERP and the QT time, respectively, which are due to the substances were independently interpreted as indications of the risk of the occurrence of undesirable torsade-de-pointes arrhythmias. Furthermore, the QRS interval also was determined in each case from the ECG as a measurement of the ventricular rate of spread of stimulus. Even a prolongation of the QRS interval caused by a test substance is connected with an increased risk of undesirable pro-arrhythmic side-effects. Therefore in this test model the lack of an ERP and QT time prolongation signifies a low risk, but the occurrence of a relevant ERP and QT prolongation on the other hand signifies an elevated risk of undesirable pro-arrhythmic effects. Also the lack of a prolongation of the QRS interval which is due to the substances due to the substances of Formula I investigated indicates a low risk of undesirable pro-arrhythmic side-effects, since lack of QRS prolongation indicates an undisturbed spread of stimulus in the ventricle. Conversely, a QRS prolongation, which is typically triggered by Class I antiarrhythmic drugs indicates slowing of the conduction rate and may promote the occurrence of ventricular tachycardias to ventricular fibrillation.
Male guinea pigs (Dunkin-Hartley from Charles River) were anaesthetized (ketamine 50 mg/kg, xylazine 10 mg/kg) and each of them was provided with a venous access via one jugular vein for administration of compounds of Formula I or a vehicle. A bipolar stimulation catheter was fed into the right ventricle of the guinea pigs via the other jugular vein (stimulation frequency 5 Hz). The arterial blood pressure was measured by a catheter located in the carotid artery which was connected to a Statham pressure transducer. The ECG was recorded via needle electrodes. The measured data were digitized via an analog/digital converter, recorded on a computer with suitable software (Ponemah Physiology Platform from Gould, USA) and printed out in parallel on a multichannel printer. After an equilibration period of 45 min., increasing doses of the compounds of Formula I or of the vehicle were administered intravenously (=i.v.) to the guinea pigs at 12-minute intervals. Before the first administration and in each case one minute after administration of increasing doses (0.1−max. 30 μmole/kg) of the substances of Formula I, the effective refractory period was measured. For this, after five normal stimuli in each case an additional pulse was applied and the elapsed time thereof from the preceding pulse was increased until a heart action was triggered. The observed time interval corresponds to the ERP of the ventricular myocardium.
In order to detect possible effects of the test substances on the blood pressure, in the same test model after each administration of substance the systolic and diastolic blood pressure was determined and compared with the previous blood-pressure level. The parameters were recorded automatically 1 and 8 min. after each administration of substance.
Only statistically significant effects were listed, with a t-test with a significance limit of P<0.05 being used for the statistical testing.

T1 sequence (P22460 whole entry): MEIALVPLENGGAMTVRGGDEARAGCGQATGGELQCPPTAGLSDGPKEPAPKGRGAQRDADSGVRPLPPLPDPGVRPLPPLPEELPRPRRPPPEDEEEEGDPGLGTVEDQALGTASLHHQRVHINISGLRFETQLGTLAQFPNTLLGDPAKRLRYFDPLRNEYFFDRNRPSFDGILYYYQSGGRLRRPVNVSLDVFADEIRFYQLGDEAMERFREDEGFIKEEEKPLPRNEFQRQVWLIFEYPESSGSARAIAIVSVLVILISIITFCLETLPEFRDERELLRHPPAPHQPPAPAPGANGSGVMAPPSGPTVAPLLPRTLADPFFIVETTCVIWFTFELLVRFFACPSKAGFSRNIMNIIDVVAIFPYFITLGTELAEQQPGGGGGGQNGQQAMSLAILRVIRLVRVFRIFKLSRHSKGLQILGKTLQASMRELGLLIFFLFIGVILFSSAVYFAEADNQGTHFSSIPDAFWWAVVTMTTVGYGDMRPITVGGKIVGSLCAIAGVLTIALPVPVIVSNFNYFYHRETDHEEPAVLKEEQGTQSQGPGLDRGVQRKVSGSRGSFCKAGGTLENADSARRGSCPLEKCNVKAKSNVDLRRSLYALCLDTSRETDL

Structure (SMILES) | IC50 (Kv 1.5-potassium channel) | QRS (ventricle of guinea pigs) | QT (ventricle of guinea pigs) | syst. blood pressure (change) (ventricle of guinea pigs) | ERP (ventricle of guinea pigs)
CC1(C)Oc2ccc(CC(=O)NC3CCCc4ccccc43)cc2C(NS(=O)(=O)c2cccc(F)c2)C1O (mixture of isomers) [Example 13] | 6500 nM | n.s. | n.s. | n.s. | n.s.
CCc1ccc(S(=O)(=O)N[C@@H]2c3cc(CC(=O)N[C@@H]4CCCc5ccccc54)ccc3OC(C)(C)[C@H]2O)cc1 [Example 2, 2-((3S,4R)-4-{[(4-ethylphenyl)sulfonyl]amino}-3-hydroxy-2,2-dimethyl-3,4-dihydro-2H-chromen-6-yl)-N-[(1R)-1,2,3,4-tetrahydronaphth-1-yl]acetamide] | 2000 nM | n.s. | n.s. | n.s. | n.s.
CCc1ccc(S(=O)(=O)N(CC(C)(C)C)C2c3cc(CC(=O)NCc4ccccc4)ccc3OC(C)(C)C2O)cc1 (stereo not drawn) [Example 4, N-benzyl-2-{4-[[(4-ethylphenyl)sulfonyl](neopentyl)amino]-3-hydroxy-2,2-dimethyl-3,4-dihydro-2H-chromen-6-yl}acetamide] | 1600 nM | n.s. | n.s. | n.s. | n.s.
CCc1ccc(S(=O)(=O)N(CC(C)(C)C)[C@@H]2c3cc(CC(=O)NCc4ccccc4)ccc3OC(C)(C)[C@H]2O)cc1 [Example 7] | 1500 nM | n.s. | n.s. | −15.3 mm Hg | -8.2 ms
CCc1ccc(S(=O)(=O)N(CC(C)(C)C)[C@H]2c3cc(CC(=O)NCc4ccccc4)ccc3OC(C)(C)[C@@H]2O)cc1 [Example 8] | 500 nM | n.s. | n.s. | −10.7 mm Hg | n.s.
CCc1ccc(S(=O)(=O)N[C@@H]2c3cc(CC(=O)N[C@H]4CCCc5ccccc54)ccc3OC(C)(C)[C@H]2O)cc1 [Example 9] | 2900 nM | – | – | – | –
CCc1ccc(S(=O)(=O)N(CC(C)(C)C)C2c3cc(CC(=O)NCCc4ccccc4)ccc3OC(C)(C)C2O)cc1 (stereo not drawn) [Example 10] | 1600 nM | n.s. | n.s. | −15.9 mm Hg | -8.0 ms
CCc1ccc(S(=O)(=O)NC2c3cc(CC(=O)N4CCN(c5ccccc5)CC4)ccc3OC(C)(C)C2O)cc1 (stereo not drawn) [Example 16] | 6300 nM | n.s. | n.s. | −8.6 mm Hg | -7.5 ms
